Reference: patent publication US6465494B1, “Methods for treatment of cystic fibrosis” (Cell Pathways, Inc., priority 2001, dated 2002)
Entries after “also recorded” stand apart in the source; their conditions may differ. Where a name gives a salt, the structure may show the parent alone.

Experiments:
[1] = target: PDE5 (Homo sapiens, UniProt O76074); experiment: competitive (with cGMP) binding to PDE5
[2] = test system: U937 cells; experiment: apoptosis induction of U937 cells (active caspase 3 immunofluorescence); type: cell-based; conditions: 1 μM, 24 hours, hydrochloride
Experimental: The U937 monocyte cell line was derived from a histocytic lymphoma and can be driven to differentiate into an ‘activated macrophage like’ state by treatment with 5nM phorbal ester (TPA). Treated U937 cells become adherent, increase their cytoplasmic volume and express macrophage-specific cell surface markers. The presence and level of PDE2 and 5 mRNA in both differentiated and non-differentiated U937 cells was confirmed by performing RT-PCR experiments on total RNA.
U937 cells (from ATCC Rockville, Md.) were grown in RPMI media supplemented with 5% FCS, glutamine, antibiotic/antimycotic and sodium pyruvate. Total RNA was isolated from two U937 cultures, one treated with 5nM TPA for 48 hours and one grown in normal media as listed above, using the Rouche High Pure RNA Isolation Kit (cat# 1 828 665) as per manufacturers protocol. cDNA was then synthesized from the total RNA using GibcoBRL Superscriptll (Cat # 18064-022) reverse transcriptase as per manufacturers protocol. The resulting cDNA was used as a template for RT-PCR reactions using primer sets specific for PDE2 (forward: […], reverse: […]) or PDE5 (forward: […], reverse: […]). mRNA for PDE2 and 5 were both present in the untreated U937 cells. Upon treatment with TPA, the relative amounts of PDE2 mRNA increased 5 fold. Therefore, U937 cells treated with TPA and driven to differentiate into an activated macrophage like state have elevated levels of PDE2 mRNA (see FIG. 1).
The presence of PDE2 and PDE5 protein within U937 cells was confirmed by indirect immunofluorescence (IIF). U937 cells were cultured as above. Two U937 cultures, one grown in the presence of 5 nM TPA for 48 hours and one grown in normal media were processed. All cultures were collected by centrifugation (Shandon Cytospin, 2 minutes @ 600 rpm) onto poly-L lysine-coated slides and immediately fixed in fresh 3% paraformaldehyde buffered in PBS for 10 minutes. Adherent cultures were grown on coverslips and fixed as above. […]
The level of apoptosis in U937 cells was quantified by scoring 500 consecutive cells for the presence of active caspase 3. […]

[3] = test system: TNF-α secreted by TPA-induced U937 cells; experiment: TNF-α immunoassay on culture media of TPA-treated U937 cells; type: cell-based
Experimental: One function of macrophages is to modulate the activity of other inflammatory cells through various cytokine molecules.
TNF-αlevels in the cell culture media were determined by using the TNF-α Immunoassay from R&D Systems (Cat. # DTA50) according to the manufacturer's protocol.

[4] = 91-day long-term safety assessment study in rats; type: in vivo
Source text: These changes were not associated with any gross clinical abnormality.

CC1=C(CC(=O)NCc2ccccc2)c2cc(F)ccc2/C1=C\c1ccncc1 [Example 38, (Z)-5-fluoro-2-methyl-(4-pyridylidene)-3-(N-benzyl)indenylacetamide hydrochloride]
competitive (with cGMP) binding to PDE 5 [1]: does competitively (with cGMP) bind to PDE 5
induction of apoptosis (active caspase 3) [2]: undergoing apoptosis as reflected by the presence of active caspase 3; also recorded: causes the induction of apoptosis in the differentiated and non-differentiated U937 cell line
level of TNF-α secreted into cell culture media [3]: significantly reduced
clinical biochemistry and hematology ([4]; 91 days): no changes in clinical biochemistry and hematology were evident
microscopic finding, follicular cells ([4]; 91 days, 500 mg/kg/day): follicular cell hypertrophy
microscopic finding, kidneys ([4]; 91 days, 200 and 500 mg/kg/day): increase in accumulation of hyalin droplets in the kidneys
microscopic finding, liver ([4]; 91 days, 200 and 500 mg/kg/day): slight hepatocellular hypertrophy
liver and thyroid/parathyroid weights ([4]; 91 days, males and females at 200 and 500 mg/kg/day): dose-related trend to increased liver and thyroid/parathyroid weights
toxicological effects overall ([4]; oral, 91 consecutive days, 50, 200 and 500 mg/kg/day): did not produce any major toxicological effects
